Measured values taken from patent US5612188A, “Automated, multicompartmental cell culture system” (Cornell Research Foundation, Inc., priority 1994, dated 1997).
Like-named read-outs stand apart in the source and are kept apart here.

Columns and labels:
[1] = 45 mg/kg, 72 hours; cited from earlier work
[2] = tested on: sheep liver glutathione-S-arene oxide transferase; assay: Km's for conjugation of GSH and naphthalene oxide, partially purified transferase; assay type: in vitro ADME; conditions: one-half of value for racemic naphthalene oxide, pH 7.4, read-out: Km for 1R, 2S-- or 1S, 2R-- NO (conjugation with GSH)
Excerpt: (§1) The rate of reaction of naphthalene oxide with GSH is assumed to be of the form V=Vmax*{1GSH/(GSH+Kml)}*{NO/(NO+Km2)}. […] Work with partially purified sheep liver glutathione-S-arene oxide transferase has provided Km's for conjugation of GSH and racemic naphthalene oxide at pH 7.4 (Hayakawa, T., LeMahieu, R. A., and Udenfriend, S., "Studies on Glutathione-S-arene Oxide Transferase--a Sensitive Assay", Arch. Biochem. Biophys. 162: 223-230 (1974), which is hereby incorporated by reference). Individual glutathione-S-transferase isozymes are enantioselective with respect to naphthalene oxide (O'Brien, K. A. F., Suverkropp, C., Kanekal, S., Plopper, C. G., and Buckpitt, A. R., "Tolerance to Multiple Doses of the Pulmonary Toxicant, Naphthalene", Toxicol. Appl. Pharmacol. 99: 487-500 (1989), which is hereby incorporated by reference), but GSH conjugation proceeds equally fast with 1R, 2S- and 1S, 2R-naphthalene oxide (Buonarati, M., Jones, A. D., and Buckpitt, A., "In vivo Metabolism of Isomeric Naphthalene Oxide Glutathione Conjugates", Drug Metab. Dispos. 18: 183-189 (1990), which is hereby incorporated by reference). Therefore Vmax's for conjugation with each enantiomer are assumed equal, and the Km for reaction with each enantiomer is assumed to be one-half of the value reported for racemic naphthalene oxide.

H4IIE cells = assay: Viability of H4IIE hepatoma cells after 24 hr BrdU exposure and 30 sec UV light in the multicompartmental cell culture system (trypan blue); assay type: cell-based, rat
Experimental: A rat hepatoma cell line, H4IIE obtained from the American Type Culture Collection (Bethesda, Md.), was cultured in RPMI Medium 1640 with 5 percent fetal calf serum, L-glutamine and antibiotics (penicillin G, streptomycin and amphotericin B) (Gibco Island, N.Y.). Cells were seeded 24 hr before the experiment. Attachment of H4IIE cells occurs several hours following seeding. Density was approximately 20 percent of confluence at the start of the experiment.
The multicompartmental cell culture system ("MCCS") of the present invention was used to expose both normal and transformed cells to an antineoplastic compound simultaneously. The volume of distribution of the system was 500 mL. Each compartment (T-flask, Becton Dickinson, Lincoln Park, N.J.) contained 75 mL of cell culture medium (RPMI 1640 as previously described). The flow rate was set at 5 mL per min. and maintained by means of a peristaltic pump (Millipore, Bedford, Mass.). The entire system was placed inside a Forma Scientific water-jacketed incubator (Fisher Scientific, Philadelphia, Pa.) set at 37° C. with 5 percent CO2. […]
(§2) Following the 24 hr. exposure period, both human lymphocytes and rat hepatoma cells were exposed to a UV light source for 30 sec. Viable cells were determined and enumerated by trypan blue dye exclusion on a hemacytometer immediately following UV exposure.

human lymphocytes = assay: Viability of human lymphocytes after 24 hr BrdU exposure and 30 sec UV light in the multicompartmental cell culture system (trypan blue); assay type: cell-based; conditions: 750 mg BrdU in 500 mL system
Experimental: Approximately 14 mL of freshly drawn human blood were collected into EDTA tubes (Becton Dickinson, Lincoln Park, N.J.). To this blood sample was added 4 mL of Hanks balanced salt solution. Two and one-half mL of the blood solution was layered onto 3 mL of ficoll (Pharmacia, Piscataway, N.J.) and centrifuged at 1500 rpm for 20 min at ambient temperature. The pellet was washed in an equal volume of Hanks balanced salt solution and recentrifuged. All lymphocytes collected from the 14 mL blood sample were seeded into 100 mL of RPMI 1640 (Gibco, Grand Island, N.Y.) and placed in a Forma Scientific water-jacketed incubator (Fisher Scientific, Philadelphia, Pa.) set at 37° C. with 5 percent CO2 overnight.
The multicompartmental cell culture system ("MCCS") of the present invention was used to expose both normal and transformed cells to an antineoplastic compound simultaneously. The volume of distribution of the system was 500 mL. Each compartment (T-flask, Becton Dickinson, Lincoln Park, N.J.) contained 75 mL of cell culture medium (RPMI 1640 as previously described). […]
as §2

[3] = tested on: sheep liver glutathione-S-arene oxide transferase; conditions: read-out: Km for GSH, pH 7.4, cited from earlier work
liver microsomes [4] = assay: Conjugation of naphthalene oxide with GSH, rat liver; assay type: in vitro ADME; parameters: unit not given here; conditions: assumed equal for each enantiomer
Excerpt: (§3) Determination of Vmax's and Km's for naphthalene oxide production and Vmax's for GSH conjugates and dihydrodiol production in rat microsomes were done in the same way as for the mouse. Sources of data were Buckpitt, et al, 1987, supra, Hesse, S. and Mezger, M., "Involvement of Phenolic Metabolites in the Irreversible Protein-binding of Aromatic Hydrocarbons: Reactive Metabolites of [^14 C]-naphthalene and [^14 C] 1-naphthol Formed by Rat Liver Microsomas", Mol. Pharmacol. 16: 667-675 (1979) which is hereby incorporated by reference, O'Brien et al., 1985, supra, van Bladeren et al., 1985, supra, and Yost, G. S., Buckpitt, A. R., Roth, R. A., and McLemore, T. L., "Mechanisms of Lung Injury by Systematically Administered Chemicals", Toxicol. Appl. Pharmacol. 101: 179-195 (1989), which is hereby incorporated by reference.

lung microsomes [5] = assay: Conjugation of naphthalene oxide with GSH, rat lung; assay type: in vitro ADME; parameters: unit not given here; conditions: assumed equal for each enantiomer
Excerpt: as §3

[6] = tested on: liver microsomes and cytosolic protein; assay: Conjugation of naphthalene oxide with GSH, mouse liver; assay type: in vitro ADME; conditions: assumed equal for each enantiomer
Excerpt: as §1

protein = assay: Covalent binding of naphthalene oxide to protein in hepatocytes; assay type: in vitro ADME; conditions: non-enzymatic; from hepatocyte incubations
Experimental: The first order rate constant for non-enzymatic rearrangement of naphthalene oxide to 1-naphthol has been reported (van Bladeran et al., 1985, supra). The rate of covalent binding was determined from data reported for incubations of hepatocytes with naphthalene oxide (Buonarati et al., 1989, supra).

[7] = tested on: lung microsomes and cytosolic protein; assay: Conjugation of naphthalene oxide with GSH, mouse lung; assay type: in vitro ADME; conditions: assumed equal for each enantiomer
Excerpt: as §1

[8] = non-enzymatic; cited from earlier work
liver GSH = conditions: 48 hours after xylene; cited from earlier work
lung microsomes [9] = conditions: 48 hours after xylene; cited from earlier work
liver microsomes [10] = conditions: 48 hours after xylene; cited from earlier work

In the case of `Oc1cccc2ccccc12` [1 naphthol, 1-Naphthol], the “percent of dose recovered” value [1] is listed as “Eighty-one”.

With `C1=C[C@@H]2O[C@@H]2c2ccccc21` [1R, 2S NO, 1R, 2S-naphthalene oxide] the Km ([2]; Mouse) was 50 µM and the Km ([2]; Rat) was 50 µM.

With `C1=C[C@H]2O[C@H]2c2ccccc21` [1S, 2R NO, 1S, 2R-naphthalene oxide] the Km ([2]; Mouse) was 50 µM and the Km ([2]; Rat) was 50 µM.

For `O=c1[nH]c(=O)n([C@H]2C[C@H](O)[C@@H](CO)O2)cc1Br` [BrdU, 5-bromo-2'-deoxyuridine], the “viable H4IIE cells following UV exposure” value (H4IIE cells; 750 mg BrdU in 500 mL system, 30 sec UV) was “fifty-three”, the “uptake of BrdU by hepatoma cells versus lymphocytes” value (H4IIE cells; MCCS, inferred from killing) was “greater uptake of the BrdU by the hepatoma cells than the lymphocytes” and the “viable human lymphocytes following UV exposure” value (human lymphocytes) was “Eighty-nine”.

For `N[C@@H](CCC(=O)N[C@@H](CS)C(=O)NCC(=O)O)C(=O)O` [GSH, glutathione], the Km ([3]; Mouse) is given as 3300 µM and the Km ([3]; Rat) is given as 3300 µM.

For `C1=CC2OC2c2ccccc21` (stereo not shown) [NO, naphthalene oxide], the “Vmax, conjugation with GSH” value (liver microsomes [4]) was 500, the “Vmax, conjugation with GSH” value (lung microsomes [5]) was 400 and the “Vmax, conjugation with GSH” value [6] was 150 nmol/mg/min. The Binding to protein (protein) was 0.2 pmole/mg/min/μM NO, the “Vmax, conjugation with GSH” value [7] was 22.5 nmol/mg/min and the “First order rate constant for rearrangement to 1-napthol” value [8] was 0.25 min⁻¹.

In the case of xylene, the GSH levels (liver GSH) is listed as “return to normal”, the “metabolism of naphthalene by lung microsomes, percent of the normal rate” value (lung microsomes [9]) is listed as 56% and the “metabolism of naphthalene by liver microsomes” value (liver microsomes [10]) is listed as “return to normal”.
